Columns and labels:
Test in all cases: Antimicrobial screening, agar dilution method
Assay type in all cases: cell-based
Settings in all cases: after 10, 20, 40 and 60 minutes at all dilutions 1:100, 1:200, 1:400, 1:800
Candida albicans = system: Candida albicans
Procedure: (§1) The antimicrobial properties of the 4,5-bis(4-methoxyphenyl)-1-hexyl-2-(4-nitrophenyl)-1H-imidazole was studied by the method of agar dilution. Test solutions of each compound was prepared in concentration of 1% using dimethylformamide as a solvent then they were diluted in physiological solution to obtain the final experimental dilutions 1:100, 1:200, 1:400, 1:800. The effect of these substances were compared with furacillin in a controlled study. The testing microbes used were gram positive bacteria Staphylococcus aureus, gram negative bacteria Pseudomonas aeruginosa and Escherichia coli and Candida albicans fungi were taken. The experiments used for this survey were meat-pentonlu agar (EPA) for cultivation of bacteria and Saburo environment for fungi. Each experiment used 1 ml of test solution on each plate 500 min. Add 2 drops of emulsified with microbes feel. All experimental samples were taken from the agar after 10, 20, 40, 60 minutes in the environment on the basis of Patrk planted. Bacteria were cultivated at a temperature of 37° C. for 1 day and the mushroom was kept in a thermostat for […] at a temperature of 28° C. Then results were checked.

Pseudomonas aeruginosa = system: Pseudomonas aeruginosa
Procedure: as §1

Escherichia coli = system: Escherichia coli
Procedure: as §1

Staphylococcus aureus = system: Staphylococcus aureus
Procedure: as §1

Measured: inhibition activity (in words)

CCCCCCn1c(-c2ccc(OC)c(OC)c2)nc(-c2ccc(Br)cc2)c1-c1ccc(Br)cc1 [4,5-bis(4-bromophenyl)-1-hexyl-2-(3,4-dimethoxyphenyl)-1H-imidazole]
highest inhibition activity: Candida albicans | Pseudomonas aeruginosa | Escherichia coli | Staphylococcus aureus
